Read-outs that look alike come from different tables or passages of the source.
System: Angiotensin II (AII) vasopressor response
Experiment: AII Challenge: antagonism of angiotensin II vasopressor response in conscious spontaneously hypertensive rats
Type: in vivo, rat (male okamoto-Aoki SHR)
Conditions: for inhibition in vivo at 3 mg/kg / inhibition in vivo at 1 mg/kg: Rattus norvegicus, iv; for inhibition in vivo at 3 mg/kg / Average Change / inhibition in vivo at 1 mg/kg: SHR n=2; for inhibition in vivo at 3 mg/kg: read-out: Inhibition; for Change: single SHR
Text: Conscious Male okamoto-Aoki SHR, 16-20 weeks old, weighing approximately 330 g are purchased from Charles River Labs (Wilmington, Mass.). Conscious rats are restrained in a supine position with elastic tape. The area at the base of the tail is locally anesthetized by subcutaneous infiltration with 2% procaine. […] The cannula is secured, heparinized (1,000 I.U./ml), sealed and the wound is closed. The animals are placed in plastic restraining cages in an upright position. The cannula is attached to a Statham P23Db pressure transducer, and pulsatile blood pressure is recorded to 10-15 minutes with a Gould Brush recorder. […] Angiotensin II (human sequence, Sigma Chem. Co., St. Louis, Mo.) of 0.05 and 0.1 ug/kg i.v. is injected into all rats (predosing response). Then a test compound, vehicle or a known angiotensin II antagonist is administered i.v., i.p. or orally to each set of rats. […] The vasopressor response of angiotensin II is measured for the increase in systolic blood pressure in mmHg.

[1] = 0.5 h, 3 mg/kg I.V., AII 0.05 mcg/kg IV, 30 min post dose
[2] = 0.5 h, 3 mg/kg I.V., AII 0.1 mcg/kg IV, 30 min post dose
[3] = 1 h, 3 mg/kg I.V., AII 0.05 mcg/kg IV, 60 min post dose
[4] = 1 h, 3 mg/kg I.V., AII 0.1 mcg/kg IV, 60 min post dose
[5] = 2 h, 3 mg/kg I.V., AII 0.05 mcg/kg IV, 120 min post dose
[6] = 2 h, 3 mg/kg I.V., AII 0.1 mcg/kg IV, 120 min post dose
[7] = 3 h, 3 mg/kg I.V., AII 0.05 mcg/kg IV, 180 min post dose
[8] = 3 h, 3 mg/kg I.V., AII 0.1 mcg/kg IV, 180 min post dose
[9] = 4 h, 3 mg/kg I.V., AII 0.05 mcg/kg IV, 240 min post dose
[10] = 4 h, 3 mg/kg I.V., AII 0.1 mcg/kg IV, 240 min post dose
[11] = 5 h, 3 mg/kg I.V., AII 0.05 mcg/kg IV, 300 min post dose
[12] = 5 h, 3 mg/kg I.V., AII 0.1 mcg/kg IV, 300 min post dose
[13] = […], 3 mg/kg I.V., AII 0.05 mcg/kg IV, 90 min post dose
[14] = […], 3 mg/kg I.V., AII 0.1 mcg/kg IV, 90 min post dose
[15] = 3 mg/kg I.V., AII 0.05 mcg/kg IV, 30 min post dose
[16] = 3 mg/kg I.V., AII 0.05 mcg/kg IV, 60 min post dose
[17] = 3 mg/kg I.V., AII 0.05 mcg/kg IV, 90 min post dose
[18] = 3 mg/kg I.V., AII 0.05 mcg/kg IV, 120 min post dose
[19] = 3 mg/kg I.V., AII 0.05 mcg/kg IV, 180 min post dose
[20] = 3 mg/kg I.V., AII 0.05 mcg/kg IV, 240 min post dose
[21] = 3 mg/kg I.V., AII 0.1 mcg/kg IV, 30 min post dose
[22] = 3 mg/kg I.V., AII 0.1 mcg/kg IV, 60 min post dose
[23] = 3 mg/kg I.V., AII 0.1 mcg/kg IV, 90 min post dose
[24] = 3 mg/kg I.V., AII 0.1 mcg/kg IV, 120 min post dose
[25] = 3 mg/kg I.V., AII 0.1 mcg/kg IV, 180 min post dose
[26] = 3 mg/kg I.V., AII 0.1 mcg/kg IV, 240 min post dose
[27] = 3 mg/kg I.V., AII 0.1 mcg/kg IV, 300 min post dose
[28] = 3 mg/kg I.V., AII 0.05 mcg/kg IV, 300 min post dose
[29] = 1 mg/kg I.V., AII 0.05 mcg/kg IV, 60 min post dose
[30] = 1 mg/kg I.V., AII 0.05 mcg/kg IV, 300 min post dose

SMILES: CCCCc1nc2ccc([C@H]3[C@@H]4CCCCCC[C@@H]4ON3C)cc2c(=O)n1Cc1ccc(-c2ccccc2-c2nnn[nH]2)cc1 (relative stereo) [Example 52]
- inhibition in vivo at 3 mg/kg [1]: 89%
- inhibition in vivo at 3 mg/kg [2]: 76%
- inhibition in vivo at 3 mg/kg [3]: 80%
- inhibition in vivo at 3 mg/kg [4]: 59%
- inhibition in vivo at 3 mg/kg [5]: 63%
- inhibition in vivo at 3 mg/kg [6]: 59%
- inhibition in vivo at 3 mg/kg [7]: 20%
- inhibition in vivo at 3 mg/kg [8]: 12%
- inhibition in vivo at 3 mg/kg [9]: 27%
- inhibition in vivo at 3 mg/kg [10]: 47%
- inhibition in vivo at 3 mg/kg [11]: 33%
- inhibition in vivo at 3 mg/kg [12]: 15%
- inhibition in vivo at 3 mg/kg [13]: 24%
- inhibition in vivo at 3 mg/kg [14]: 53%
- Average Change [15]: 4 mmHg
- Average Change [16]: 7.5 mmHg
- Average Change [17]: 28.5 mmHg
- Average Change [18]: 14 mmHg
- Average Change [19]: 30 mmHg
- Average Change [20]: 27.5 mmHg
- Average Change [21]: 10 mmHg
- Average Change [22]: 17.5 mmHg
- Average Change [23]: 20 mmHg
- Average Change [24]: 17.5 mmHg
- Average Change [25]: 37.5 mmHg
- Average Change [26]: 22.5 mmHg
- Average Change [27]: 36 mmHg
- Change [19]: 30 mmHg
- Change [28]: 25 mmHg
- Change [21]: 10 mmHg

SMILES: CCCCc1nc2ccc(C3CC4CCCCN3O4)cc2c(=O)n1Cc1ccc(-c2ccccc2-c2nnn[nH]2)cc1 (stereo not drawn) [Example 18, cis-2-Butyl-6-(9-oxa-1-azabicyclo[4.2.1]non-8-yl)-3-[[2'-(1H-tetrazol-5-yl)[1,1'-biphenyl]-4-yl-methyl-4(3H)-quinazolinone]
- inhibition in vivo at 3 mg/kg [1]: 68%
- inhibition in vivo at 3 mg/kg [2]: 75%
- inhibition in vivo at 3 mg/kg [3]: 53%
- inhibition in vivo at 3 mg/kg [4]: 60%
- inhibition in vivo at 3 mg/kg [5]: 5%
- inhibition in vivo at 3 mg/kg [6]: 0%
- inhibition in vivo at 3 mg/kg [7]: 58%
- inhibition in vivo at 3 mg/kg [8]: 50%
- inhibition in vivo at 3 mg/kg [9]: 63%
- inhibition in vivo at 3 mg/kg [10]: 10%
- inhibition in vivo at 3 mg/kg [11]: 11%
- inhibition in vivo at 3 mg/kg [12]: 45%
- inhibition in vivo at 3 mg/kg [13]: 47%
- inhibition in vivo at 3 mg/kg [14]: 45%
- Average Change [15]: 15 mmHg
- Average Change [16]: 22.5 mmHg
- Average Change [17]: 25 mmHg
- Average Change [18]: 45 mmHg
- Average Change [19]: 20 mmHg
- Average Change [20]: 17.5 mmHg
- Average Change [28]: 42.5 mmHg
- Average Change [21]: 12.5 mmHg
- Average Change [22]: 20 mmHg
- Average Change [23]: 27.5 mmHg
- Average Change [24]: 50 mmHg
- Average Change [25]: 25 mmHg
- Average Change [26]: 45 mmHg
- Average Change [27]: 27.5 mmHg

SMILES: CCCCc1nc2ccc(C3C4CCCN3OC4)cc2c(=O)n1Cc1ccc(-c2ccccc2-c2nnn[nH]2)cc1 (stereo not shown) [Example 21]
- inhibition in vivo at 1 mg/kg (0.5 h, 1 mg/kg I.V., AII 0.05 mcg/kg IV, 30 min post dose): 53%
- inhibition in vivo at 1 mg/kg (0.5 h, 1 mg/kg I.V., AII 0.1 mcg/kg IV, 30 min post dose): 53%
- inhibition in vivo at 1 mg/kg (1 h, 1 mg/kg I.V., AII 0.05 mcg/kg IV, 60 min post dose): 68%
- inhibition in vivo at 1 mg/kg (1 h, 1 mg/kg I.V., AII 0.1 mcg/kg IV, 60 min post dose): 56%
- inhibition in vivo at 1 mg/kg (2 h, 1 mg/kg I.V., AII 0.05 mcg/kg IV, 120 min post dose): 63%
- inhibition in vivo at 1 mg/kg (2 h, 1 mg/kg I.V., AII 0.1 mcg/kg IV, 120 min post dose): 61%
- inhibition in vivo at 1 mg/kg (3 h, 1 mg/kg I.V., AII 0.05 mcg/kg IV, 180 min post dose): 63%
- inhibition in vivo at 1 mg/kg (3 h, 1 mg/kg I.V., AII 0.1 mcg/kg IV, 180 min post dose): 47%
- inhibition in vivo at 1 mg/kg (4 h, 1 mg/kg I.V., AII 0.05 mcg/kg IV, 240 min post dose): 42%
- inhibition in vivo at 1 mg/kg (4 h, 1 mg/kg I.V., AII 0.1 mcg/kg IV, 240 min post dose): 61%
- inhibition in vivo at 1 mg/kg (5 h, 1 mg/kg I.V., AII 0.05 mcg/kg IV, 300 min post dose): 37%
- inhibition in vivo at 1 mg/kg (5 h, 1 mg/kg I.V., AII 0.1 mcg/kg IV, 300 min post dose): 34%
- inhibition in vivo at 1 mg/kg ([…], 1 mg/kg I.V., AII 0.05 mcg/kg IV, 90 min post dose): 63%
- inhibition in vivo at 1 mg/kg ([…], 1 mg/kg I.V., AII 0.1 mcg/kg IV, 90 min post dose): 52%
- Average Change (1 mg/kg I.V., AII 0.05 mcg/kg IV, 30 min post dose): 22.5 mmHg
- Average Change [29]: 15 mmHg
- Average Change (1 mg/kg I.V., AII 0.05 mcg/kg IV, 90 min post dose): 17.5 mmHg
- Average Change (1 mg/kg I.V., AII 0.05 mcg/kg IV, 120 min post dose): 17.5 mmHg
- Average Change (1 mg/kg I.V., AII 0.05 mcg/kg IV, 180 min post dose): 17.5 mmHg
- Average Change (1 mg/kg I.V., AII 0.05 mcg/kg IV, 240 min post dose): 27.5 mmHg
- Average Change [30]: 30 mmHg
- Average Change (1 mg/kg I.V., AII 0.1 mcg/kg IV, 30 min post dose): 27 mmHg
- Average Change (1 mg/kg I.V., AII 0.1 mcg/kg IV, 60 min post dose): 25 mmHg
- Average Change (1 mg/kg I.V., AII 0.1 mcg/kg IV, 90 min post dose): 27.5 mmHg
- Average Change (1 mg/kg I.V., AII 0.1 mcg/kg IV, 120 min post dose): 22.5 mmHg
- Average Change (1 mg/kg I.V., AII 0.1 mcg/kg IV, 180 min post dose): 30 mmHg
- Average Change (1 mg/kg I.V., AII 0.1 mcg/kg IV, 240 min post dose): 22.5 mmHg
- Average Change (1 mg/kg I.V., AII 0.1 mcg/kg IV, 300 min post dose): 37.5 mmHg
- Change [29]: 15 mmHg
- Change [30]: 30 mmHg

From US5294611A, “Angiotensin II receptor blocking 2,3,6 substituted quinazolinones” (American Cyanamid Company, priority 1993, dated 1994)
